Reference: US9302999B2, “Substituted triazoles as herbicides” (E. I. DU PONT DE NEMOURS AND COMPANY, priority 2012, dated 2016)

How the values were obtained:
Type in all cases: in vivo
[1] = system: barley (winter barley, Hordeum vulgare); test: Test C postemergence: barley
Method in brief: (§1)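 Crop and weed plants were grown in peat-vermiculite medium and treated postemergence at the 1- to 4-leaf stage (2-18 cm tall). After 13-15 days in a greenhouse, each species was rated visually against untreated controls on a 0-100 scale (0 no effect, 100 complete control).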

[2] = system: windgrass (Apera spica-venti); test: Test C postemergence: windgrass
Method in brief: as §1

[3] = system: deadnettle (henbit deadnettle, Lamium amplexicaule); test: Test C postemergence: deadnettle
Method in brief: as §1

[4] = system: canarygrass (Phalaris minor); test: Test C postemergence: canarygrass
Method in brief: as §1

[5] = system: foxtail, green (green foxtail, Setaria viridis); test: Test C pre-/postemergence: foxtail, green
Method in brief: (§2)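 Preemergence on seeds in loam/sand, postemergence on 2–18 cm (1–4-leaf) plants in peat-based medium; compounds in non-phytotoxic solvent with surfactant. After 13–15 days in greenhouse, visual rating versus controls, 0 (no effect) to 100 (complete control).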

[6] = system: bromegrass, downy (downy bromegrass, Bromus tectorum); test: Test C pre-/postemergence: bromegrass, downy
Method in brief: as §2

[7] = system: goosegrass (Eleusine indica); test: Test C pre-/postemergence: goosegrass
Method in brief: as §2

[8] = system: cocklebur (common cocklebur, Xanthium strumarium); test: Test C pre-/postemergence: cocklebur
Method in brief: as §2

[9] = system: woolly cupgrass (Eriochloa villosa); test: Test C pre-/postemergence: woolly cupgrass
Method in brief: as §2

[10] = system: nightshade (eastern black nightshade, Solanum ptycanthum); test: Test C pre-/postemergence: nightshade; conditions: Preemergence
Method in brief: as §2

[11] = 31 g ai/ha, scale 0 to 100 (0 no effect, 100 complete control)
[12] = 62 g ai/ha, scale 0 to 100 (0 no effect, 100 complete control)
[13] = 125 g ai/ha, scale 0 to 100, 0 no effect, 100 complete control
[14] = Postemergence, 31 g ai/ha, scale 0 to 100 (0 no effect, 100 complete control)
[15] = Postemergence, 62 g ai/ha, scale 0 to 100 (0 no effect, 100 complete control)
[16] = Postemergence, 125 g ai/ha, scale 0 to 100, 0 no effect, 100 complete control
[17] = Postemergence, 250 g ai/ha, scale 0 to 100
[18] = Preemergence, 31 g ai/ha, scale of 0 to 100, 0 is no effect, 100 is complete control
[19] = Preemergence, 62 g ai/ha, scale of 0 to 100, 0 is no effect, 100 is complete control
[20] = Preemergence, 125 g ai/ha, scale 0 to 100, 0 no effect, 100 complete control
[21] = Preemergence, 250 g ai/ha, scale 0 to 100, 0 no effect, 100 complete control
[22] = Preemergence, 62 g ai/ha, scale 0 to 100, 0 no effect, 100 complete control
[23] = 31 g ai/ha, scale of 0 to 100, 0 is no effect, 100 is complete control
[24] = 62 g ai/ha, scale of 0 to 100, 0 is no effect, 100 is complete control
[25] = 250 g ai/ha, scale 0 to 100, 0 no effect, 100 complete control

## Fc1ccc(-n2nc(Cc3ccnc(C(F)(F)F)c3)c(OC(F)F)n2)cc1 [Compound 25]
[1]; [11]
  Plant response rating, Barley: 20
[1]; [12]
  Plant response rating, Barley: 25
[1]; [13]
  Plant response rating, Barley: 30
[1]; 250 g ai/ha, scale 0 to 100
  Plant response rating, Barley: 30
[2]; [11]
  Plant response rating, Windgrass: 30
[2]; [12]
  Plant response rating, Windgrass: 35
[2]; [13]
  Plant response rating, Windgrass: 40
[2]; 250 g ai/ha, scale 0 to 100
  Plant response rating, Windgrass: 40
[3]; [11]
  Plant response rating, Deadnettle: 50
[3]; [12]
  Plant response rating, Deadnettle: 55
[3]; [13]
  Plant response rating, Deadnettle: 90
[3]; 250 g ai/ha, scale 0 to 100
  Plant response rating, Deadnettle: 100
[4]; [11]
  Plant response rating, Canarygrass: 5
[4]; [12]
  Plant response rating, Canarygrass: 10
[4]; [13]
  Plant response rating, Canarygrass: 30
[4]; 250 g ai/ha, scale 0 to 100
  Plant response rating, Canarygrass: 55
[5]; [14]
  Plant response rating, Foxtail, Green: 35
[5]; [15]
  Plant response rating, Foxtail, Green: 35
[5]; [16]
  Plant response rating, Foxtail, Green: 35
[5]; [17]
  Plant response rating, Foxtail, Green: 70
[5]; [18]
  Plant response rating, Foxtail, Green: 90
[5]; [19]
  Plant response rating, Foxtail, Green: 95
[5]; [20]
  Plant response rating, Foxtail, Green: 95
[5]; [21]
  Plant response rating, Foxtail, Green: 95
[6]; [14]
  Plant response rating, Bromegrass, Downy: 5
[6]; [15]
  Plant response rating, Bromegrass, Downy: 5
[6]; [16]
  Plant response rating, Bromegrass, Downy: 5
[6]; [17]
  Plant response rating, Bromegrass, Downy: 10
[6]; [18]
  Plant response rating, Bromegrass, Downy: 5
[6]; [22]
  Plant response rating, Bromegrass, Downy: 5
[6]; [20]
  Plant response rating, Bromegrass, Downy: 40
[6]; [21]
  Plant response rating, Bromegrass, Downy: 80
[7]; [14]
  Plant response rating, Goosegrass: 15
[7]; [15]
  Plant response rating, Goosegrass: 20
[7]; [16]
  Plant response rating, Goosegrass: 25
[7]; [17]
  Plant response rating, Goosegrass: 40
[7]; [18]
  Plant response rating, Goosegrass: 90
[7]; [19]
  Plant response rating, Goosegrass: 100
[7]; [20]
  Plant response rating, Goosegrass: 100
[7]; [21]
  Plant response rating, Goosegrass: 100
[8]; [14]
  Plant response rating, Cocklebur: 15
[8]; [15]
  Plant response rating, Cocklebur: 20
[8]; [16]
  Plant response rating, Cocklebur: 20
[8]; [17]
  Plant response rating, Cocklebur: 20
[8]; [18]
  Plant response rating, Cocklebur: 0
[8]; [22]
  Plant response rating, Cocklebur: 0
[8]; [20]
  Plant response rating, Cocklebur: 0
[8]; [21]
  Plant response rating, Cocklebur: 30
[9]; [14]
  Plant response rating, Cupgrass, Woolly: 25
[9]; [15]
  Plant response rating, Cupgrass, Woolly: 25
[9]; [16]
  Plant response rating, Cupgrass, Woolly: 25
[9]; [17]
  Plant response rating, Cupgrass, Woolly: 45
[9]; [18]
  Plant response rating, Cupgrass, Woolly: 20
[9]; [19]
  Plant response rating, Cupgrass, Woolly: 40
[9]; [20]
  Plant response rating, Cupgrass, Woolly: 65
[9]; [21]
  Plant response rating, Cupgrass, Woolly: 98
[10]; [23]
  Plant response rating, Nightshade: 10
[10]; [24]
  Plant response rating, Nightshade: 45
[10]; [13]
  Plant response rating, Nightshade: 95
[10]; [25]
  Plant response rating, Nightshade: 95

## FC(F)Oc1nn(-c2ccc(C(F)(F)F)cc2)nc1Cc1ccnc(C(F)(F)F)c1 [Compound 26]
[1]; [11]
  Plant response rating, Barley: 20
[1]; [12]
  Plant response rating, Barley: 30
[1]; [13]
  Plant response rating, Barley: 30
[1]; 250 g ai/ha, scale 0 to 100
  Plant response rating, Barley: 40
[2]; [11]
  Plant response rating, Windgrass: 40
[2]; [12]
  Plant response rating, Windgrass: 55
[2]; [13]
  Plant response rating, Windgrass: 80
[2]; 250 g ai/ha, scale 0 to 100
  Plant response rating, Windgrass: 80
[3]; [11]
  Plant response rating, Deadnettle: 98
[3]; [12]
  Plant response rating, Deadnettle: 98
[3]; [13]
  Plant response rating, Deadnettle: 98
[3]; 250 g ai/ha, scale 0 to 100
  Plant response rating, Deadnettle: 100
[4]; [11]
  Plant response rating, Canarygrass: 40
[4]; [12]
  Plant response rating, Canarygrass: 45
[4]; [13]
  Plant response rating, Canarygrass: 90
[4]; 250 g ai/ha, scale 0 to 100
  Plant response rating, Canarygrass: 90
[5]; [14]
  Plant response rating, Foxtail, Green: 30
[5]; [15]
  Plant response rating, Foxtail, Green: 40
[5]; [16]
  Plant response rating, Foxtail, Green: 70
[5]; [17]
  Plant response rating, Foxtail, Green: 85
[5]; [18]
  Plant response rating, Foxtail, Green: 85
[5]; [19]
  Plant response rating, Foxtail, Green: 95
[5]; [20]
  Plant response rating, Foxtail, Green: 95
[5]; [21]
  Plant response rating, Foxtail, Green: 95
[6]; [14]
  Plant response rating, Bromegrass, Downy: 15
[6]; [15]
  Plant response rating, Bromegrass, Downy: 30
[6]; [16]
  Plant response rating, Bromegrass, Downy: 40
[6]; [17]
  Plant response rating, Bromegrass, Downy: 50
[6]; [18]
  Plant response rating, Bromegrass, Downy: 5
[6]; [22]
  Plant response rating, Bromegrass, Downy: 45
[6]; [20]
  Plant response rating, Bromegrass, Downy: 50
[6]; [21]
  Plant response rating, Bromegrass, Downy: 85
[7]; [14]
  Plant response rating, Goosegrass: 25
[7]; [15]
  Plant response rating, Goosegrass: 30
[7]; [16]
  Plant response rating, Goosegrass: 40
[7]; [17]
  Plant response rating, Goosegrass: 70
[7]; [18]
  Plant response rating, Goosegrass: 95
[7]; [19]
  Plant response rating, Goosegrass: 100
[7]; [20]
  Plant response rating, Goosegrass: 100
[7]; [21]
  Plant response rating, Goosegrass: 100
[8]; [14]
  Plant response rating, Cocklebur: 10
[8]; [15]
  Plant response rating, Cocklebur: 15
[8]; [16]
  Plant response rating, Cocklebur: 55
[8]; [17]
  Plant response rating, Cocklebur: 65
[8]; [18]
  Plant response rating, Cocklebur: 0
[8]; [22]
  Plant response rating, Cocklebur: 5
[8]; [20]
  Plant response rating, Cocklebur: 15
[8]; [21]
  Plant response rating, Cocklebur: 55
[9]; [14]
  Plant response rating, Cupgrass, Woolly: 25
[9]; [15]
  Plant response rating, Cupgrass, Woolly: 40
[9]; [16]
  Plant response rating, Cupgrass, Woolly: 45
[9]; [17]
  Plant response rating, Cupgrass, Woolly: 55
[9]; [18]
  Plant response rating, Cupgrass, Woolly: 10
[9]; [19]
  Plant response rating, Cupgrass, Woolly: 65
[9]; [20]
  Plant response rating, Cupgrass, Woolly: 70
[9]; [21]
  Plant response rating, Cupgrass, Woolly: 90
[10]; [23]
  Plant response rating, Nightshade: 55
[10]; [24]
  Plant response rating, Nightshade: 90
[10]; [13]
  Plant response rating, Nightshade: 98
[10]; [25]
  Plant response rating, Nightshade: 98

## Cc1nn(-c2ccc(C(F)(F)F)cn2)nc1Cc1cccc(C(F)(F)F)c1 [Compound 106]
[1]; [11]
  Plant response rating, Barley: 15
[1]; [12]
  Plant response rating, Barley: 25
[1]; [13]
  Plant response rating, Barley: 35
[1]; 250 g ai/ha, scale 0 to 100
  Plant response rating, Barley: 40
[2]; [11]
  Plant response rating, Windgrass: 50
[2]; [12]
  Plant response rating, Windgrass: 65
[2]; [13]
  Plant response rating, Windgrass: 80
[2]; 250 g ai/ha, scale 0 to 100
  Plant response rating, Windgrass: 85
[3]; [11]
  Plant response rating, Deadnettle: 75
[3]; [12]
  Plant response rating, Deadnettle: 80
[3]; [13]
  Plant response rating, Deadnettle: 90
[3]; 250 g ai/ha, scale 0 to 100
  Plant response rating, Deadnettle: 90
[4]; [11]
  Plant response rating, Canarygrass: 35
[4]; [12]
  Plant response rating, Canarygrass: 50
[4]; [13]
  Plant response rating, Canarygrass: 70
[4]; 250 g ai/ha, scale 0 to 100
  Plant response rating, Canarygrass: 80
[5]; [14]
  Plant response rating, Foxtail, Green: 50
[5]; [15]
  Plant response rating, Foxtail, Green: 50
[5]; [16]
  Plant response rating, Foxtail, Green: 70
[5]; [17]
  Plant response rating, Foxtail, Green: 85
[5]; [18]
  Plant response rating, Foxtail, Green: 90
[5]; [19]
  Plant response rating, Foxtail, Green: 95
[5]; [20]
  Plant response rating, Foxtail, Green: 95
[5]; [21]
  Plant response rating, Foxtail, Green: 95
[6]; [14]
  Plant response rating, Bromegrass, Downy: 30
[6]; [15]
  Plant response rating, Bromegrass, Downy: 35
[6]; [16]
  Plant response rating, Bromegrass, Downy: 40
[6]; [17]
  Plant response rating, Bromegrass, Downy: 40
[6]; [18]
  Plant response rating, Bromegrass, Downy: 0
[6]; [22]
  Plant response rating, Bromegrass, Downy: 5
[6]; [20]
  Plant response rating, Bromegrass, Downy: 40
[6]; [21]
  Plant response rating, Bromegrass, Downy: 60
[7]; [14]
  Plant response rating, Goosegrass: 10
[7]; [15]
  Plant response rating, Goosegrass: 35
[7]; [16]
  Plant response rating, Goosegrass: 45
[7]; [17]
  Plant response rating, Goosegrass: 55
[7]; [18]
  Plant response rating, Goosegrass: 80
[7]; [19]
  Plant response rating, Goosegrass: 98
[7]; [20]
  Plant response rating, Goosegrass: 98
[7]; [21]
  Plant response rating, Goosegrass: 100
[8]; [14]
  Plant response rating, Cocklebur: 35
[8]; [15]
  Plant response rating, Cocklebur: 35
[8]; [16]
  Plant response rating, Cocklebur: 40
[8]; [17]
  Plant response rating, Cocklebur: 55
[9]; [14]
  Plant response rating, Cupgrass, Woolly: 5
[9]; [15]
  Plant response rating, Cupgrass, Woolly: 45
[9]; [16]
  Plant response rating, Cupgrass, Woolly: 45
[9]; [17]
  Plant response rating, Cupgrass, Woolly: 50
[9]; [18]
  Plant response rating, Cupgrass, Woolly: 5
[9]; [19]
  Plant response rating, Cupgrass, Woolly: 60
[9]; [20]
  Plant response rating, Cupgrass, Woolly: 80
[9]; [21]
  Plant response rating, Cupgrass, Woolly: 90
[10]; [23]
  Plant response rating, Nightshade: 0
[10]; [24]
  Plant response rating, Nightshade: 75
[10]; [13]
  Plant response rating, Nightshade: 90
[10]; [25]
  Plant response rating, Nightshade: 100
